Experimental data published in patent US11266170B2, “Sweetener and flavor compositions, methods of making and methods of use thereof” (EPC Natural Products Co., Ltd., priority 2018, dated 2022).

Key:
[1] = Kinetics of reaction of Phe with Reb-A, Gluc, Xyl, Suc in dependence of pH-conditions, HPLC/MS (Example 55); type: physicochemical
Experimental: Quantitative evaluation was performed using external standardization.
Kinetics of Reaction in dependence of pH-conditions

3 persons = assay: Sensory analysis of odor/smell, color and taste of reacted samples (Examples 55-62); type: in vivo; settings: Example 57, after reaction; 10 ml KH2PO4, pH 7.8, 2.5 h, 120 °C
Experimental: The reaction partners were dissolved in water and then warmed glycerin (60° C.) was added. […]
The taste test was performed as in Example 38.
All samples were assessed at 22° C. after the Maillard reaction was stopped by placing the sealed vials in an ice bath. After 20 minutes in the ice bath the sealed vials were put in a water bath set to 22° C.
The odor/smell was assessed independently by 3 persons; the final description was agreed after discussion. […] The taste was assessed independently by 3 persons either in the original samples or after appropriate dilution to achieve relevant concentrations of sugars and steviol-glycosides (i.e. 5-9% SE); the final description was agreed after discussion.

panel of four people = assay: Sensory test of Maillard reaction series in glycerol, buffer or dry conditions (Examples 50, 52); type: in vivo; parameters: key to Intensity of Smell: “+” for slight; “++” for moderate; “+++” for very strong
Experimental: The reaction partner (amino acid, carbohydrate source) were dissolved/suspended in the reaction solvent and transferred into a glass beaker filled with sand pre-heated for at least 30 minutes at the reaction temperature in a drying oven. After the planned reaction time, the vials were transferred into ice water. After cooling to room temperature, sensory analysis and analytical characterization was performed.
All tests were performed with negative controls (only reaction solvent, reaction solvent and amino acid, reaction solvent and carbohydrate).
Another series of experiments was performed in […] filled with 10 ml of reaction solvent. The reaction partner (amino acid, carbohydrate source) were dissolved/suspended in the reaction solvent and reflux heated for the time given on heating plates. After the planned reaction time, the flasks were transferred into ice water. After cooling to room temperature, sensory analysis and analytical characterization was performed.
Another series of experiments was performed in 20 ml sealed Pyrex vials. The reaction partner (amino acid, carbohydrate source) were finely grinded and mixed, then transferred in the Pyrex vial. A small volume of water was added and the reaction initiated in a drying oven. After the planned reaction time, the vials were transferred into ice water. After cooling to room temperature, sensory analysis and analytical characterization was performed.
For evaluation of the taste profile, the samples were tested by a panel of four people. 1 trained taster tasted independently the samples first. The taster was asked to describe the taste profile and score 0-5 according to the increasing sugar likeness, bitterness, aftertaste and lingering taste profiles. The first taster was allowed to re-taste, and then make notes for the sensory attributes perceived. Afterwards, another 3 tasters tasted and the attributes were noted and discussed openly to find a suitable description. In case that more than 1 taster disagreed with the results, the tasting was repeated. In some sensory test results (above), the taste rating was expressed by “+”, which means the intensity of the factors is shown by three levels. “+” for slight, “++” for moderate and “+++” for very strong.

[2] = Sensory evaluation of GSGs and SGs, thaumatin, NHDC and combinations in water (Example 255); settings: combinations of EPCalin and NHDC in water, concentrations as in the sample name
Experimental: 4.5 ppm Thaumatin (equivalent to 10 ppm EPCalin) was dissolved in water. Increasing amounts of NHDC (1-5 ppm) were added to the solution and the sensory properties were evaluated.
50 ppm (GSGs and SGs) were dissolved in water. Increasing amounts of NHDC (1-5 ppm) were added to the solution and the sensory properties were evaluated.
50 ppm (GSGs and SGs) and 4.5 ppm Thaumatin (equivalent to 10 ppm EPCalin) were dissolved in water. Increasing amounts of NHDC (1-5 ppm) were added to the solution and the sensory properties were evaluated.

[3] = Assay to test reducing power (iron-III reduction), Example 64; type: biochemical; settings: 100° C., 0-5.0 h, pH 7.8; compared with glucose or xylose
[4] = Assay to test DPPH radical-scavenging activity, Example 65; type: biochemical; settings: 100° C., 0-5.0 h, pH 7.8; compared with glucose or xylose
Experimental: 1 mg 1,1-Diphenyl-2-picrylhydrazyl radical (DPPH)/ml ethanol, dilution to assay concentration were prepared in ethanol (40 μg/mL); Calibration samples were prepared with Ascorbic acid in a concentration of 0-10 μg/mL; as a negative control sample, water was used.
Samples in aqueous solution were used as such or diluted with water.
A 0.1 ml sample (or calibration standard) was mixed with 3.9 ml solution of DPPH (100 μMolar) and reacted while protected from light at room temperature for 30 min. Absorbance was determined at 517 nm against ethanol.
10 mM of amino acid and/or 10 mM sugar were dissolved in 10 ml 0.1 mM KH2PO4-buffer, pH=7.8.
The samples were kept at 100° C. in sealed glass vials (Pyrex 15 ml with screw caps) for 0 (before reaction), 2.5 or 5.0 hours. Thereafter the samples were transferred to an ice water bath and cooled down to room temperature. These samples were diluted 1:10 and used for the test assay for anti-oxidant potential.

[5] = reaction of Phe and Gluc, pH = 5.5
[6] = reaction of Phe and Gluc, pH = 7.0
[7] = reaction of Phe and Gluc, pH = 8.5
[8] = reaction of Phe and Reb-A, pH = 5.5
[9] = reaction of Phe and Reb-A, pH = 7.0
[10] = reaction of Phe and Reb-A, pH = 8.5
[11] = reaction of Phe and Suc, pH = 5.5
[12] = reaction of Phe and Suc, pH = 7.0
[13] = reaction of Phe and Suc, pH = 8.5
[14] = Table 52.2, 1 ml water + 9 ml Glycerin, 0.67 h, 100° C. (Table 50.2)
[15] = Table 52.5, 1 ml water + 9 ml Glycerin, 2.0 h, 120° C. (Table 50.5)
[16] = Table 52.3, 1 ml water + 9 ml Glycerin, 0.67 h, 100° C. (Table 50.3)
[17] = Table 52.6, Glycerin, 10 ml, 100° C., 40 min (Table 50.6)
[18] = Table 52.7, Glycerin, 10 ml, 1 h, 120° C. (Table 50.7)
[19] = Table 52.1, 1 ml water + 9 ml Glycerin, 1 h, 100° C. (Table 50.1)
[20] = reaction of Phe and Reb-A, pH = 5.5, Reb-B from degraded Reb-A, MRIs from degraded Phe
[21] = reaction of Phe and Reb-A, pH = 7.0, Reb-B from degraded Reb-A, MRIs from degraded Phe
[22] = reaction of Phe and Reb-A, pH = 8.5, Reb-B from degraded Reb-A, MRIs from degraded Phe

For `NC(Cc1ccccc1)C(=O)O` (single isomer, unassigned) [Phe], the “% degradation” value [1, 5] was 2.26%, the “% degradation” value [1, 6] was 2.18% and the “% degradation” value [1, 7] was 4.24%. For the same compound, the “% degradation” value [1, 8] was 1.97%, the “% degradation” value [1, 9] was 9.07% and the “% degradation” value [1, 10] was 12.8%. The “% degradation” value [1, 11] was 5.50%, the “% degradation” value [1, 12] was 5.19% and the “% degradation” value [1, 13] was 5.36%. The “% degradation” value ([1]; reaction of Phe and Xyl, pH = 5.5) was 4.24%, the “% degradation” value ([1]; reaction of Phe and Xyl, pH = 7.0) was 4.80% and the “% degradation” value ([1]; reaction of Phe and Xyl, pH = 8.5) was 9.89%. For the same compound, the Smell (3 persons) was “Caramel, burnt” and the Taste (3 persons) was “sweet”.
With `C[C@H](N)C(=O)O` [0.1 mMol Ala] the Smell (panel of four people; [14]) was “Agar” and the Taste (panel of four people; [14]) was “sweet”.
With `O=C[C@H](O)[C@H]1OC(=O)[C@@H](O)[C@H]1O` [0.1 mMol GlucLac] the “Intensity of Smell” value (panel of four people; [15]) was “+++”, the Smell (panel of four people; [15]) was “Burnt sugar” and the Taste (panel of four people; [15]) was “Bitter”.
With `NCCCC[C@H](N)C(=O)O` [0.1 mMol Lys] the Smell (panel of four people; [16]) was “Popcorn” and the Taste (panel of four people; [16]) was “Sweet”.
With `N[C@@H](Cc1ccccc1)C(=O)O` [0.1 mMol Phe] the Taste (panel of four people; [14]) was “sweet”, the “Intensity of Smell” value (panel of four people; [15]) was “+” and the Smell (panel of four people; [15]) was “Caramel, burnt”. For the same compound, the Taste (panel of four people; [15]) was “sweet”.
With `C=C1C[C@@]23CC[C@H]4[C@@](C)(CCC[C@@]4(C)C(=O)O[C@@H]4O[C@H](CO)[C@@H](O)[C@H](O)[C@H]4O)[C@@H]2CC[C@]1(O[C@@H]1O[C@H](CO)[C@@H](O)[C@H](O[C@@H]2O[C@H](CO)[C@@H](O)[C@H](O)[C@H]2O)[C@H]1O[C@@H]1O[C@H](CO)[C@@H](O)[C@H](O)[C@H]1O)C3` [0.05 mMol Reb-A] the Smell (panel of four people; [14]) was “neutral/unpleasant” and the Taste (panel of four people; [14]) was “sweet”.
In the case of `N[C@@H](Cc1ccccc1)C(=O)O` [3.3 mMol Phe], the Smell (panel of four people; Table 52.6, Glycerin, 10 ml, 100° C., 5 min (Table 50.6)) is reported as “Slightly bloomy”, the Smell (panel of four people; Table 52.6, Glycerin, 10 ml, 100° C., 10 min (Table 50.6)) is reported as “flowery/bloomy” and the Smell (panel of four people; Table 52.6, Glycerin, 10 ml, 100° C., 20 min (Table 50.6)) is reported as “flowery/bloomy”. The Smell (panel of four people; [17]) was “flowery/bloomy” and the Smell (panel of four people; [18]) was “flowery/bloomy”.
In the case of `OC[C@H]1OC(O)[C@H](O)[C@@H](O)[C@@H]1O` (stereo partly shown) [10 mMol Glu], the Smell (panel of four people; [17]) is reported as “Slightly Caramel” and the Smell (panel of four people; [18]) is reported as “Slightly Caramel”.
For `COc1ccc(CCC(=O)c2c(O)cc(O[C@@H]3O[C@H](CO)[C@@H](O)[C@H](O)[C@H]3O[C@@H]3O[C@@H](C)[C@H](O)[C@@H](O)[C@H]3O)cc2O)cc1O` [10 ppm NHDC], the Sensory evaluation [2] was “Sweet, steep onset of sweetness, no lingering”.
In the case of `N[C@@H](CCC(=O)O)C(=O)O` [167 mMol Glu], the Smell (panel of four people; [19]) is reported as “caramel” and the Taste (panel of four people; [19]) is reported as “Sweet”.
With `OC[C@H]1OC(O)[C@H](O)[C@@H](O)[C@@H]1O` (stereo partly shown) [Glu] the “% degradation” value [1, 5] was 3.65%, the “% degradation” value [1, 6] was 4.6% and the “% degradation” value [1, 7] was 7.62%. The Smell (3 persons) was “Burnt sugar” and the Taste (3 persons) was “Sweet/bitter”.
For `O=C(O)[C@H](Cc1ccccc1)NCC(=O)[C@@H](O)[C@H](O)[C@H](O)CO` [MRI (Phe-Glu)], the “% formation” value ([1]; reaction of Phe and Suc, pH = 5.5, from degraded Phe) was less than 0.10%, the “% formation” value ([1]; reaction of Phe and Suc, pH = 7.0, from degraded Phe) was 0.54% and the “% formation” value ([1]; reaction of Phe and Suc, pH = 8.5, from degraded Phe) was 0.84%.
With `C=C1CC23CC[C@H]4[C@@](C)(CCC[C@@]4(C)C(=O)OC4O[C@H](C(=O)N[C@H](Cc5ccccc5)C(=O)O)[C@@H](O)[C@H](O)[C@H]4O)[C@@H]2CC(O[C@@H]2O[C@H](CO)[C@@H](O)C(O[C@@H]4O[C@H](CO)[C@@H](O)[C@H](O)[C@H]4O)[C@H]2O[C@@H]2O[C@H](CO)[C@@H](O)[C@H](O)[C@H]2O)C1C3` (stereo partly drawn) [MRI (Phe-Reb-A)] the “% formation” value [1, 20] was 10.4%, the “% formation” value [1, 21] was 11.3% and the “% formation” value [1, 22] was 14.7%.
In the case of `N[C@@H](Cc1ccccc1)C(=O)O` [Phe 60 mMol], the Smell (panel of four people; [19]) is reported as “flowery/bloomy-caramel” and the Taste (panel of four people; [19]) is reported as “Sweet”.
For `C=C1C[C@@]23CC[C@H]4[C@@](C)(CCC[C@@]4(C)C(=O)O[C@@H]4O[C@H](CO)[C@@H](O)[C@H](O)[C@H]4O)[C@@H]2CC[C@]1(O[C@@H]1O[C@H](CO)[C@@H](O)[C@H](O[C@@H]2O[C@H](CO)[C@@H](O)[C@H](O)[C@H]2O)[C@H]1O[C@@H]1O[C@H](CO)[C@@H](O)[C@H](O)[C@H]1O)C3` [Reb-A, Rebaudioside A, reference compound], the “active iron-III reduction (anti-oxidant properties)” value [3] was “substantial anti-oxidant properties”, the “% degradation” value [1, 8] was 8.25% and the “% degradation” value [1, 9] was 10.1%. The “% degradation” value [1, 10] was 12.6% and the “radical scavenging properties (anti-oxidant properties)” value [4] was “substantial anti-oxidant properties”.
For `OC[C@H]1O[C@@](CO)(O[C@H]2O[C@H](CO)[C@@H](O)[C@H](O)[C@H]2O)[C@@H](O)[C@@H]1O` [Suc], the “% degradation” value [1, 11] was 3.67%, the “% degradation” value [1, 12] was 5.69% and the “% degradation” value [1, 13] was 9.81%.
In the case of rebaudioside B [RB], the “% formation” value [1, 20] is reported as 23.1%, the “% formation” value [1, 21] is reported as 22.7% and the “% formation” value [1, 22] is reported as 19.1%.
